Test results as given in the supplement of paper PMC10307832.

Experiments:
Test in all cases: relative viability (nuclei count vs DMSO), 5 days (fraction); higher = more cells survive
IU1-47 + Palbociclib = compound: CC1=CC(=C(N1C2=CC=C(C=C2)Cl)C)C(=O)CN3CCCCC3 [IU1-47] + CC(=O)c1c(C)c2cnc(Nc3ccc(N4CCNCC4)cn3)nc2n(C2CCCC2)c1=O [Palbociclib] (partner 0.5 µM)
How it was run: (§1)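 Five library-drug doses in √10 steps were combined with a fixed anchor-drug dose, or a single drug was given alone, by pin tool to lung cancer cell lines in 1536-well plates the day after seeding. Nuclei were stained and counted after 5 days. Relative viability is the nuclei count in treated wells over that in vehicle wells, taken as the median of duplicate plates.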

FG-4592 + Palbociclib = compound: Cc1nc(C(=O)NCC(=O)O)c(O)c2ccc(Oc3ccccc3)cc12 [FG-4592] + CC(=O)c1c(C)c2cnc(Nc3ccc(N4CCNCC4)cn3)nc2n(C2CCCC2)c1=O [Palbociclib] (partner 0.5 µM)
How it was run: as §1

IU1-47 + AZD7762 = compound: CC1=CC(=C(N1C2=CC=C(C=C2)Cl)C)C(=O)CN3CCCCC3 [IU1-47] + NC(=O)Nc1cc(-c2cccc(F)c2)sc1C(=O)N[C@H]1CCCNC1 [AZD7762] (partner 0.2 µM)
How it was run: as §1

IU1-47 + Luminespib = compound: CC1=CC(=C(N1C2=CC=C(C=C2)Cl)C)C(=O)CN3CCCCC3 [IU1-47] + CCNC(=O)c1noc(-c2cc(C(C)C)c(O)cc2O)c1-c1ccc(CN2CCOCC2)cc1 [Luminespib] (partner 0.01 µM)
How it was run: as §1

| Cell Line | relative viability (IU1-47 + Palbociclib; first compound 0.08 µM) | relative viability (IU1-47 + Palbociclib; first compound 0.253 µM) | relative viability (IU1-47 + Palbociclib; first compound 0.8 µM) | relative viability (IU1-47 + Palbociclib; first compound 2.53 µM) | relative viability (IU1-47 + Palbociclib; first compound 8 µM) | relative viability (FG-4592 + Palbociclib; first compound 0.08 µM) | relative viability (FG-4592 + Palbociclib; first compound 0.253 µM) | relative viability (FG-4592 + Palbociclib; first compound 0.8 µM) | relative viability (FG-4592 + Palbociclib; first compound 2.53 µM) | relative viability (FG-4592 + Palbociclib; first compound 8 µM) | relative viability (IU1-47 + AZD7762; first compound 0.08 µM) | relative viability (IU1-47 + AZD7762; first compound 0.253 µM) | relative viability (IU1-47 + AZD7762; first compound 0.8 µM) | relative viability (IU1-47 + AZD7762; first compound 2.53 µM) | relative viability (IU1-47 + AZD7762; first compound 8 µM) | relative viability (IU1-47 + Luminespib; first compound 0.08 µM) | relative viability (IU1-47 + Luminespib; first compound 0.253 µM) | relative viability (IU1-47 + Luminespib; first compound 0.8 µM) | relative viability (IU1-47 + Luminespib; first compound 2.53 µM) | relative viability (IU1-47 + Luminespib; first compound 8 µM) |
| --- | --- | --- | --- | --- | --- | --- | --- | --- | --- | --- | --- | --- | --- | --- | --- | --- | --- | --- | --- | --- |
| EMC-BAC-2 | 0.521 | 0.541 | 0.512 | 0.507 | 0.519 | 0.51 | 0.529 | 0.467 | 0.503 | 0.47 | 1.1 | 1.24 | 1.09 | 1.07 | 1.07 | 1.4 | 1.32 | 1.28 | 1.26 | 0.93 |
| NCI-H2405 | 0.539 | 0.593 | 0.531 | 0.539 | 0.506 | 0.454 | 0.449 | 0.48 | 0.46 | 0.442 | 0.795 | 0.804 | 0.853 | 0.815 | 0.739 | 0.77 | 0.824 | 0.739 | 0.694 | 0.804 |
| NCI-H358 | 0.131 | 0.165 | 0.149 | 0.112 | 0.141 | 0.114 | 0.141 | 0.128 | 0.128 | 0.136 | 0.576 | 0.521 | 0.5 | 0.405 | 0.435 | 0.366 | 0.328 | 0.347 | 0.3 | 0.349 |
| NCI-H1944 | 0.342 | 0.376 | 0.345 | 0.291 | 0.33 | 0.329 | 0.329 | 0.282 | 0.363 | 0.29 | 0.794 | 0.612 | 0.601 | 0.445 | 0.464 | 0.989 | 0.764 | 0.832 | 0.729 | 0.778 |
| NCI-H2342 | 0.564 | 0.569 | 0.487 | 0.527 | 0.519 | 0.519 | 0.503 | 0.47 | 0.538 | 0.489 | 0.526 | 0.588 | 0.57 | 0.507 | 0.486 | 0.698 | 0.679 | 0.775 | 0.713 | 0.745 |
| EPLC-272H | 0.315 | 0.338 | 0.289 |  | 0.336 | 0.323 | 0.289 | 0.327 | 0.378 | 0.283 | 0.232 | 0.205 | 0.226 |  | 0.217 | 0.382 | 0.261 | 0.221 |  | 0.315 |
| NCI-H1915 | 0.561 | 0.513 | 0.539 | 0.565 | 0.528 | 0.475 | 0.513 | 0.496 | 0.504 | 0.513 | 0.712 | 0.71 | 0.671 | 0.655 | 0.703 | 0.816 | 0.804 | 0.848 |  | 0.728 |
| NCI-H322M | 0.489 | 0.551 | 0.487 | 0.537 | 0.494 |  | 0.455 | 0.444 | 0.465 | 0.483 | 0.671 | 0.696 | 0.54 | 0.615 | 0.488 | 1.03 | 0.929 | 0.922 | 0.879 | 0.715 |
| NCI-H522 | 0.987 | 0.988 | 1.36 | 0.845 | 0.956 | 0.97 | 0.884 |  | 1.1 | 0.811 | 0.889 | 0.726 | 0.969 | 0.691 | 1 | 1.32 | 1.27 | 1.35 | 0.864 | 1.23 |
